Results on 89 sequences are retold here after the OligoGym collection.

Values joined by “and” are separate entries in the source; they are usually repeats but may differ in a detail not shown here. Identical values can stand only once. After the bases stand the sugars from the 5' end (letter, count) and the backbone: PS all phosphorothioate, else s phosphorothioate and o phosphodiester by linkage. Methylation of C is not given here. e = 2'-O-(2-methoxyethyl) (MOE); k = constrained ethyl (cEt); d = 2'-deoxy (DNA)

For the first data set, the target named is IRF4. The following applies: ASO, MM.1R, 0.0625 µM.
Regarding GAGTTACCGCATTGCT (sugars k3 d10 k3, PS), the target mRNA inhibition is -9%.

The same data set, now with this note: ASO, MM.1R, 0.074 µM.
As for “GCATTTTATCATCCGA (sugars k3 d9 k3 e1, PS)”, the target mRNA inhibition is 16%.

In the case of CAGGTTTCATTTCATT (sugars k3 d10 k3, PS), the target mRNA inhibition is -1%.

The same data set, now with this note: ASO, MM.1R, 0.222 µM.
In the case of “GCATTTTATCATCCGA (sugars k3 d9 k3 e1, PS)”, the target mRNA inhibition was 32%.

Regarding CAGGTTTCATTTCATT (sugars k3 d10 k3, PS), the target mRNA inhibition came out at 13%.

The data set is the same for the next values; noted with them: ASO, MM.1R, 0.25 µM.
As to GAGTTACCGCATTGCT (sugars k3 d10 k3, PS), the target mRNA inhibition came out at 16%.

Staying with this data set, now noted: ASO, MM.1R, 0.666 µM.
In the case of “GCATTTTATCATCCGA (sugars k3 d9 k3 e1, PS)”, the target mRNA inhibition was determined as 51%.

Turning to CAGGTTTCATTTCATT (sugars k3 d10 k3, PS), the target mRNA inhibition was 10%.

Staying with this data set, now noted: ASO, MM.1R, 1 µM.
“GCATTTTATCATCCGA (sugars k3 d9 k3 e1, PS)”: the target mRNA inhibition came to 62%.

Turning to GTGCACTCGCGCAAAG (sugars k3 d10 k3, PS), the target mRNA inhibition is -5%.

Take “CAGTGATGTCAGGTTT (sugars e1 k2 d9 k2 e2, PS)”: the target mRNA inhibition was determined as 20%.

As to CCTGTGCAAAACCAGT (sugars k3 d10 k3, PS), the target mRNA inhibition is -10%.

Take AAGCTTGATAAAGGCT (sugars k3 d10 k3, PS): the target mRNA inhibition worked out at 3%.

AGGCAGGGACCGCGCC (sugars k3 d10 k3, PS): the target mRNA inhibition is -11%.

Turning to GACTGGAGTGAACCCT (sugars k3 d10 k3, PS), the target mRNA inhibition was 38%.

For the sequence GTCATGGGACATTGGT (sugars k3 d10 k3, PS), the target mRNA inhibition stood at 26%.

As to TACACCTCTTCACTAC (sugars k3 d10 k3, PS), the target mRNA inhibition is -18%.

As to “GTTGGCTGGTCTTTGT (sugars kkdddddddddkdkdk, PS)”, the target mRNA inhibition came out at 56%.

ATACATGTCTGGTTTA (sugars k3 d10 k3, PS): the target mRNA inhibition turned out to be 4%.

Turning to CAGATTTACACCGTTG (sugars k3 d10 k3, PS), the target mRNA inhibition was 15%.

TCTGGCTAGCAGAGGT (sugars k3 d10 k3, PS): the target mRNA inhibition was determined as 26%.

Regarding “GACACTTTTAGAGAGG (sugars kkdddddddddekeke, PS)”, the target mRNA inhibition amounted to 22%.

As to “CACATCAATGTTTTAG (sugars kkdddddddddkekek, PS)”, the target mRNA inhibition is 19% and 34%.

Regarding GAGTTACCGCATTGCT (sugars k3 d10 k3, PS), the target mRNA inhibition was 47% and 52%.

As for AGACAGTGCGCCCCAA (sugars k3 d10 k3, PS), the target mRNA inhibition is -17%.

For “GTGATGTCAGGTTTTC (sugars k2 d9 e3 k2, PS)”, the target mRNA inhibition worked out at 38%.

In the case of “AATGTGTATTACTCTT (sugars k2 d9 e3 k2, PS)”, the target mRNA inhibition was 15% and 17%.

Turning to CCTAGGACTAAGGACA (sugars k3 d10 k3, PS), the target mRNA inhibition is -3%.

Turning to “TTGGTTGGCTGGTCTT (sugars kkdddddddddekeke, PS)”, the target mRNA inhibition came out at 34%.

For “TACTGTTACCGATGCT (sugars kkdddddddddekeke, PS)”, the target mRNA inhibition was 22% and 14%.

Take “TGATAGCTGAGCTGAT (sugars kkdddddddddkdkdk, PS)”: the target mRNA inhibition was -22%.

Turning to “TTCATGTAAAGTCTGC (sugars kkdddddddddkdkdk, PS)”, the target mRNA inhibition was 14% and 35%.

As to CTGCCAAGTTGAAGAC (sugars k3 d10 k3, PS), the target mRNA inhibition is 33%.

Consider TCAGGGAATCCCTTAT (sugars k3 d10 k3, PS), for which the target mRNA inhibition is 4%.

AAGTGGAACTCATAGG (sugars k3 d10 k3, PS): the target mRNA inhibition came to 25%.

For CGCCGGCACAGGCGCG (sugars k3 d10 k3, PS), the target mRNA inhibition was found to be 14%.

With CGCGCAAGTCTACAGC (sugars k3 d10 k3, PS), the target mRNA inhibition was found to be 13%.

The data set is the same for the next values; noted with them: ASO, MM.1R, 2 µM.
Turning to “GCATTTTATCATCCGA (sugars k3 d9 k3 e1, PS)”, the target mRNA inhibition amounted to 77%.

In the case of CAGGTTTCATTTCATT (sugars k3 d10 k3, PS), the target mRNA inhibition was 39%.

The data set is the same for the next values; noted with them: ASO, MM.1R, 4 µM.
As to GAGTTACCGCATTGCT (sugars k3 d10 k3, PS), the target mRNA inhibition is 81%.

Staying with this data set, now noted: ASO, SK-MEL-28, 0.185 µM.
CAGGTTTCATTTCATT (sugars k3 d10 k3, PS): the target mRNA inhibition worked out at 15%.

The same data set, now with this note: ASO, SK-MEL-28, 4 µM.
Consider ACGCTTGCAGCTCTGA (sugars k3 d10 k3, PS), for which the target mRNA inhibition amounted to 48%.

Turning to TTACAGCATCTAAGGC (sugars k3 d10 k3, PS), the target mRNA inhibition is 21%.

On to GAGATATTAATTACTG (sugars k3 d10 k3, PS), for which the target mRNA inhibition was 63%.

Take AGATAACGAGGTGCCT (sugars k3 d10 k3, PS): the target mRNA inhibition turned out to be 23%.

ACTGAACCATGTTCCT (sugars k3 d10 k3, PS): the target mRNA inhibition came to 51%.

Consider GAACAGGACCTGGTCC (sugars k3 d10 k3, PS), for which the target mRNA inhibition stood at 25%.

Take TTTTAGTTCATACCCA (sugars k3 d10 k3, PS): the target mRNA inhibition came out at 52%.

With GTCAAACTATAATTGG (sugars k3 d10 k3, PS), the target mRNA inhibition amounted to 61%.

In the case of GCCGGCCTGGCCCTTC (sugars k3 d10 k3, PS), the target mRNA inhibition is -14%.

On to GAATGCATAACACGGT (sugars k3 d10 k3, PS), for which the target mRNA inhibition amounted to 61%.

Consider CACTACCTGCAGCCAA (sugars k3 d10 k3, PS), for which the target mRNA inhibition amounted to 31%.

On to CGTCAAGGAGGCCTGG (sugars k3 d10 k3, PS), for which the target mRNA inhibition came to 43%.

CACGAAGGGCAGTGCC (sugars k3 d10 k3, PS): the target mRNA inhibition was 17%.

As for CAAAGACCAGCTTTTT (sugars k3 d10 k3, PS), the target mRNA inhibition was 50%.

Take CGGGAGAGCGGAGGCG (sugars k3 d10 k3, PS): the target mRNA inhibition is 0%.

Consider TTAGACATTACTAGAT (sugars k3 d10 k3, PS), for which the target mRNA inhibition came to 45%.

In the case of CCTGAACATGACTGGG (sugars k3 d10 k3, PS), the target mRNA inhibition was determined as 38%.

In the case of CCCTTCAGCCACGAGG (sugars k3 d10 k3, PS), the target mRNA inhibition amounted to 8%.

Regarding TTGAAGCAACACGGGA (sugars k3 d10 k3, PS), the target mRNA inhibition turned out to be 61%.

TCAGACTGTGCTGCTC (sugars k3 d10 k3, PS): the target mRNA inhibition is 36%.

For the sequence GAAAACAGCCGCCGGC (sugars k3 d10 k3, PS), the target mRNA inhibition was found to be 26%.

In the case of TGCATGAGGGTGACAC (sugars k3 d10 k3, PS), the target mRNA inhibition turned out to be 45%.

As for GTCTCTCACGCAGTGC (sugars k3 d10 k3, PS), the target mRNA inhibition stood at 50%.

As to CTTCTTCTTTATGCGA (sugars k3 d10 k3, PS), the target mRNA inhibition is 66%.

As to CAGGTTTCATTTCATT (sugars k3 d10 k3, PS), the target mRNA inhibition was 60%.

Consider CTGGCTCCGCTCAACC (sugars k3 d10 k3, PS), for which the target mRNA inhibition worked out at 52%.

GGCAACCATTTTCACA (sugars k3 d10 k3, PS): the target mRNA inhibition is -17%.

With TTCTTTATGCGAAGAA (sugars k3 d10 k3, PS), the target mRNA inhibition was 9%.

In the case of AACCAAGAAATGCACC (sugars k3 d10 k3, PS), the target mRNA inhibition was found to be 33%.

CCACCCTCCGTCTCAC (sugars k3 d10 k3, PS): the target mRNA inhibition is 33%.

For the sequence GACAGCTAAAGAACAC (sugars k3 d10 k3, PS), the target mRNA inhibition was found to be 19%.

Consider GCGCATTTCAGTAAAT (sugars k3 d10 k3, PS), for which the target mRNA inhibition stood at 33%.

Regarding ACCCAAGACTCCCAGA (sugars k3 d10 k3, PS), the target mRNA inhibition turned out to be 45%.

As for AGTCAGACAGTGCGCC (sugars k3 d10 k3, PS), the target mRNA inhibition is 10%.

Turning to TGGACTCGGAGCTGAG (sugars k3 d10 k3, PS), the target mRNA inhibition was found to be 24%.

For AGCTAGAACATGATGA (sugars k3 d10 k3, PS), the target mRNA inhibition is 5%.

On to AGCAAAGAGGGTCACA (sugars k3 d10 k3, PS), for which the target mRNA inhibition came out at 68%.

TTTACTAACTGGCTTC (sugars k3 d10 k3, PS): the target mRNA inhibition is 45%.

Consider GGACCTGGTCCAGGTT (sugars k4 d8 k4, PS), for which the target mRNA inhibition was -28%.

With ACCAGAATTGCAAGAG (sugars k3 d10 k3, PS), the target mRNA inhibition came to 60%.

With CACTCAGCAAGTGTCT (sugars k3 d10 k3, PS), the target mRNA inhibition was found to be 50%.

As for TCTATAGTGTTCCAGG (sugars k3 d10 k3, PS), the target mRNA inhibition was found to be 80%.

CCGCAATTCTCCTCAA (sugars k3 d10 k3, PS): the target mRNA inhibition was 20%.

On to ACTGCTGTGTGTCAAA (sugars k3 d10 k3, PS), for which the target mRNA inhibition is -6%.

Regarding ATGATGTATACCAACG (sugars k3 d10 k3, PS), the target mRNA inhibition was 86%.

With TGTTACCGATGCTTCA (sugars k3 d10 k3, PS), the target mRNA inhibition amounted to 49%.

Consider GGGCACCCCGCCCCGA (sugars k3 d10 k3, PS), for which the target mRNA inhibition stood at 1%.

On to TCACCTGGCAACCTGC (sugars k4 d8 k4, PS), for which the target mRNA inhibition was found to be 28%.

GTGAACATGCCACTCA (sugars k3 d10 k3, PS): the target mRNA inhibition is 62%.

Take TCGCAGGCAGTTGTGC (sugars k3 d10 k3, PS): the target mRNA inhibition is -20%.

Consider GTCTTAGGTGTTCAAG (sugars k3 d10 k3, PS), for which the target mRNA inhibition was 56%.

For the sequence GTAACAGGCTATCAGG (sugars k3 d10 k3, PS), the target mRNA inhibition stood at 45%.

CTGCATCAAATCAAGT (sugars k3 d10 k3, PS): the target mRNA inhibition turned out to be 47%.

With GAATTAGGTGCTTAAT (sugars k3 d10 k3, PS), the target mRNA inhibition was found to be 59%.

In the case of AATCACTTGTCTTGGG (sugars k3 d10 k3, PS), the target mRNA inhibition was 60%.

Take TCCACTGTTAAAGCAG (sugars k3 d10 k3, PS): the target mRNA inhibition was 55%.

For AATCAGATGATGTCTA (sugars k4 d8 k4, PS), the target mRNA inhibition was -13%.

As to TCCTTTAGTGTCGCCA (sugars k3 d10 k3, PS), the target mRNA inhibition was determined as 76%.

CTTGTTCAAAGCGCAC (sugars k3 d10 k3, PS): the target mRNA inhibition is 32%.

Take ATGGAGATACTTGTAC (sugars k3 d10 k3, PS): the target mRNA inhibition is 62%.

The same data set, now with this note: ASO, SK-MEL-28, 5 µM.
CAGGTTTCATTTCATT (sugars k3 d10 k3, PS): the target mRNA inhibition came to 71%.

The same data set, now with this note: ASO, SK-MEL-28, 15 µM.
Regarding CAGGTTTCATTTCATT (sugars k3 d10 k3, PS), the target mRNA inhibition was 91%.
